“Also recorded” adds a separate entry of the source. Residues, ends and D or L forms follow the SMILES beside them. *: point of attachment. Cbz = O=C(OCc1ccccc1)*
Key:
[1] = target: T1, chymotrypsin-like activity of the proteasome (Caenorhabditis elegans, UniProt Q9XUV0); test: 26S proteasome fluorogenic peptidase assay in worm lysate, chymotrypsin-like (Z-GGL-AMC / Suc-LLVY-AMC); format: biochemical, C. elegans; conditions: inhibitor 20 min prior to substrate, vs DMSO
T1 construct: worms were lysed in proteasome activity assay buffer; from tissue; host or cells: whole-worm lysate of adult C. elegans (N2, glp-1(e2141), fer-15;fem-1, daf-16;glp-1, rpn-6.1 OE and RNAi-fed strains)
T1 sequence (Q9XUV0 65-284): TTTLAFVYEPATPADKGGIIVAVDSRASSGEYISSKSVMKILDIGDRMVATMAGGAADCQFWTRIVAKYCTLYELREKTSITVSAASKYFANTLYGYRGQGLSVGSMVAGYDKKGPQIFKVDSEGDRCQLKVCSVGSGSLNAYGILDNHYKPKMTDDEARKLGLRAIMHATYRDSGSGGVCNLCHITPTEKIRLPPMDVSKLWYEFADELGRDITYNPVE
Protocol: (§1) 26S proteasome activity assays. In vitro 26S proteasome activity assays were performed as previously described [Finley, D. Recognition and processing of ubiquitin-protein conjugates by the proteasome. Annual review of biochemistry 78, 477-513 (2009)]. Worms were lysed in proteasome activity assay buffer (50 mM Tris-HCl pH 7.5, 250 mM sucrose, 5 mM MgCl2, 0.5 mM EDTA, 2 mM ATP and 1 mM dithiothreitol) using a Precellys 24 homogenizer (Bertin technologies). Lysate was centrifuged at 10,000 g for 15 min at 4° C. 25 μg of total protein lysate was transferred to a 96-well microtiter plate (BD Falcon) and incubated with fluorogenic substrate. Fluorescence (380-nm excitation, 460-nm emission) was monitored on a microplate fluorometer (Infinite M1000, Tecan) every 5 min for 1 h at 25° C.
(§2) 26S proteasome fluorogenic peptidase assays. […] Methods in enzymology 398, 364-378 (2005)]. Briefly, worms were lysed in proteasome activity assay buffer (50 mM Tris-HCl pH 7.5, 250 mM sucrose, 5 mM MgCl2, 0.5 mM EDTA, 2 mM ATP and 1 mM dithiothreitol) using a Precellys 24 homogenizer (Bertin technologies). Lysate was centrifuged at 10,000 g for 15 min at 4° C. For each experiment, 25 μg of total protein lysate was transferred to a 96-well microtiter plate (BD Falcon) then fluorogenic substrate was added. For measuring the chymotrypsin-like activity of the proteasome either Z-Gly-Gly-Leu-AMC (Enzo) or Suc-Leu-Leu-Val-Tyr-AMC (Enzo) was used. Z-Leu-Leu-Glu-AMC (Enzo) was used to measure the caspase-like activity of the proteasome and Ac-Arg-Leu-Arg-AMC for the proteasome trypsin-like activity. Fluorescence (380-nm excitation, 460-nm emission) was monitored on a microplate fluorometer (Infinite M1000, Tecan) every 5 min for 1 h at 25° C.

[2] = target: T2, chymotrypsin-like activity of the proteasome (Homo sapiens, UniProt P28074); test: 26S proteasome fluorogenic peptidase assay in human cell extracts, chymotrypsin-like; format: biochemical; conditions: H9 hESCs; 62.5 nM for 24 hours; vs DMSO
T2 construct: 15-25 μg of total protein of cell lysates were transferred to a 96-well microtiter plate; endogenous in cells; host or cells: H9 and HUES-6 hESCs and derived NPCs, neurons, trophoblasts and fibroblasts; BJ fibroblasts, astrocytes, HEK293T
T2 sequence (P28074 60-263): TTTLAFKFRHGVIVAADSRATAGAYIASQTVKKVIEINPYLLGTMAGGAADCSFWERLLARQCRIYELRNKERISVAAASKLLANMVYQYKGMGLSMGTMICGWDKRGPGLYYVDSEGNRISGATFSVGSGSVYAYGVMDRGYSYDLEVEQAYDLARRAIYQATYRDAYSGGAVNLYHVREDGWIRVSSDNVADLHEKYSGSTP
Protocol: 26S proteasome fluorogenic peptidase assays. In vitro assay of 26S proteasome activities was performed as previously described (Kisselev, A. F. & Goldberg, A. L., Methods in enzymology 398, 364-378 (2005)). Cells were collected in proteasome activity assay buffer (50 mM Tris-HCl (pH 7.5), 250 mM sucrose, 5 mM MgCl2, 0.5 mM EDTA, 2 mM ATP and 1 mM dithiothreitol) and lysed by passing 10 times through a 27 gauge needle attached to a 1 ml syringe. Lysate was centrifuged at 10,000 g for 10 min at 4° C. 15-25 μg of total protein of cell lysates were transferred to a 96-well microtiter plate (BD Falcon) and then the fluorogenic substrate was added to lysates. For measuring the chymotrypsin-like activity of the proteasome Applicants used either Z-Gly-Gly-Leu-AMC (Enzo) or Suc-Leu-Leu-Val-Tyr-AMC (Enzo). Applicants used Z-Leu-Leu-Glu-AMC (Enzo) to measure the caspase-like activity of the proteasome and Ac-Arg-Leu-Arg-AMC for the proteasome trypsin-like activity. Fluorescence (380-nm excitation, 460-nm emission) was monitored on a microplate fluorometer (Infinite M1000, Tecan) every 5 min for 1 h at 25° C. Protein concentration of the cell homogenates was determined using the BCA protein assay (Pierce).

H9 hESCs = test: quantitative RT-PCR in H9 hESCs; format: cell-based, human; conditions: 62.5 nM 24 h, relative to DMSO
Protocol: Lentiviral infection of human stem cells. hESC colonies growing on Matrigel were incubated with mTesR1 medium containing 10 μM ROCK inhibitor (Y-27632) for one hApplicants' and individualized using Accutase 1×. 5×10^5 cells were infected in suspension with 10 μl of concentrated lentivirus in the presence of 10 μM ROCK inhibitor. Cell suspension was centrifuged to remove virus, passed through a mesh of […] to obtain individual cells and plated back on a feeder layer of fresh MEFs in hESC cell media supplemented with 10 μM ROCK inhibitor. After a few days in culture, small hES cell colonies arose. For LV-GFP and LV-shFOXOs stable lines, GFP positive colonies were selected and manually passaged onto fresh MEFs to establish new hESC cell lines. For LV-non-targeting shRNA, shPSMD11, shPSMC2, FOXO4 OE, FOXO4 AAA OE and PSMD11 OE stable lines, Applicants performed 1 μg/ml puromycin resistance selection during 3 days and then colonies were manually passaged onto fresh MEFs to establish new hESC cell lines. […]
RNA isolation and quantitative RT-PCR. Total RNA was extracted using RNAbee (Tel-Test Inc). cDNA was created using the Quantitect Reverse Transcriptase kit (Qiagen). […] Data was analyzed with the comparative 2ΔΔCt method using β-actin and GAPDH as housekeeping genes. […]

[3] = system: polyubiquitinylated proteins, proteasome subunits, transcription factors; test: Western blot of human cell extracts; format: cell-based; conditions: H9 hESCs; 62.5 nM 24 h
Protocol: Western Blot. For analysis of proteasome subunits, cells were collected in proteasome activity assay buffer supplemented with protease inhibitors (Roche) and lysed by passing 10 times through a 27 gauge needle attached to a 1 ml syringe. Lysate was centrifuged at 10,000 g for 10 min at 4° C. Protein concentration of the cell homogenates was determined using the BCA protein assay (Pierce). For analysis of transcription factor and polyubiquitinylated proteins, cells were harvested from tissue culture plates by cell scraping and lysed in protein cell lysis buffer (10 mM Tris-Cl pH7.4, 10 mM EDTA, 50 mM NaCl, 50 mM NaF, 1% Triton X-100, 0.1% SDS supplemented with 2 mM sodium orthovanadate, 1 mM PMSF and Complete Mini Protease and PhosSTOP inhibitor cocktail mix) for 2 hrs at 1,000 rpm and 4° C. in a Thermomixer. Protein concentrations were determined with a standard Bradford protein assay (BioRad). 20-50 μg of total protein were separated by SDS-PAGE, transferred to nitrocellulose membranes (Whatman) and subjected to immunoblotting. […]

hESCs = test: MG-132 treatment of cultured cells, cell death and detachment; format: cell-based, human; conditions: hESCs vs NPCs or neurons; data not shown
[4] = system: chymotrypsin-like activity of the proteasome; test: 26S proteasome fluorogenic peptidase assay in worm lysate, chymotrypsin-like (Z-GGL-AMC / Suc-LLVY-AMC); format: biochemical, C. elegans; conditions: worms at 25° C., 100 μg ml^−1 for the first three days of adulthood; FIG. 11
Protocol: as §1, §2

[5] = fer-15(b26);fem-1(hc17) worm lysate

| proteasome activity in treated worms [4] | SMILES | chymotrypsin-like proteasome activity (Z-GGL-AMC) [1, 5] | chymotrypsin-like proteasome activity (Z-GGL-AMC) ([1]; glp-1(e2141) worm lysate) | proteasome activity in hESCs [2] | pluripotency markers (Real Time PCR) (H9 hESCs) | polyubiquitinylated proteins [3] | sensitivity to proteasome inhibition (cell death and detachment) (hESCs) |
| --- | --- | --- | --- | --- | --- | --- | --- |
|  | CC(=O)N[C@@H](CSC(=O)[C@]1([C@@H](O)C(C)C)NC(=O)[C@H](C)[C@@H]1O)C(=O)O [lactacystin] | blocked activity from extracts; also recorded: blocked chymotrypsin-like proteasome activity | blocked activity from extracts; also recorded: blocked chymotrypsin-like proteasome activity |  |  |  |  |
|  | CC(C)C[C@@H](C=O)NC(=O)[C@H](CC(C)C)NC(=O)[C@H](CC(C)C)NC(=O)OCc1ccccc1 [MG-132] (Cbz-Leu-Leu-Leu-aldehyde) | blocked activity from extracts; also recorded: blocked chymotrypsin-like proteasome activity | blocked activity from extracts; also recorded: blocked chymotrypsin-like proteasome activity | sufficient to reduce proteasome activity; also recorded: dramatically decreases proteasome activity | decreased pluripotency markers; also recorded: induces a decrease in pluripotency markers | induces accumulation of polyubiquitinylated proteins | hESCs were more sensitive to proteasome inhibition than NPCs or neurons |
| did not affect proteasome activity | O=c1[nH]c(=O)n([C@H]2C[C@H](O)[C@@H](CO)O2)cc1F [FUdR, 5-fluoro-2′ deoxyuridine] |  |  |  |  |  |  |

Source: patent publication US20130065834A1, “MODULATORS OF PROTEASOME ACTIVITY” (SALK INSTITUTE FOR BIOLOGICAL STUDIES, priority 2011, published 2013)
